# Source: patent US20190110476A1, “NOVEL ISOTHIAZOLAMIDES, PROCESSES FOR THEIR PREPARATION AND THEIR USE AS FUNGICIDES” (priority 2014, published 2019)
# Marks after values point to notes of the source that are not given here.
# Assay: Measurement of LogP values by HPLC on reversed phase columns (EEC directive 79/831 Annex V.A8)
# Assay type: physicochemical
# Conditions: not given
# Summary of the method: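 LogP measured by reversed-phase HPLC following EEC directive 79/831 Annex V.A8. Lambda-max taken from UV spectra at 200–400 nm at chromatographic peak maxima; diastereoisomer values listed separately.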
LogP,LogP [a],LogP [b],Compound
2.80[a],–,–,CC(C)N(C(=O)c1snc(NC(=O)C(C)(C)C)c1Cl)C(C)C [I-974]
3.05[a],–,–,C#Cc1c(NC(=O)C(F)(F)F)nsc1C(=O)NCC1CCCCC1 [I-609]
5.97[a],–,–,O=C(NCCc1ncc(C(F)(F)F)cc1Cl)c1snc(N(Cc2ccccc2)Cc2ccccc2)c1Br [I-950]
4.23[a],–,–,COc1ccc(CNc2nsc(C(=O)NC(C)c3ccc(Br)cc3)c2Cl)cc1 (stereo not drawn) [I-1273]
–,3.84^[a],–,COc1ccc(CNc2nsc(C(=O)N3CCCc4ccccc43)c2Cl)cc1 [II-097]
2.53[a],–,–,Nc1cc(C(=O)N(Cc2c(Cl)cccc2Cl)C2CC2)sn1 [I-968]
4.69[a],–,–,COc1ccc(CNc2nsc(C(=O)NC(c3ccccc3C)C(C)C)c2Cl)cc1 (stereo not drawn) [I-1192]
2.94[a],–,–,COc1ccc(CNc2nsc(C(=O)NCc3cccc(C(C)C)n3)c2Cl)cc1 [I-1274]
–,4.33^[a],–,COc1ccc(CNc2nsc(C(=O)NC(C)Cc3ccccc3Cl)c2Cl)cc1 (stereo not drawn) [II-010]
5.14[a],–,–,COc1ccc(CNc2nsc(C(=O)N(Cc3ccc(F)cc3F)C(=O)c3ccc(C(F)(F)F)cc3)c2Cl)cc1 [I-1556]
2.03[a],–,–,CCOC(=O)c1cccc(CNC(=O)c2snc(N)c2Cl)c1 [I-1307]
2.68[a],–,–,COc1ccc(CNc2nsc(C(=O)NCC3COCC3C)c2Cl)cc1 (stereo not drawn) [I-1200]
4.23[a],–,–,COc1ccc(CNc2nsc(C(=O)NC(C)c3ccc(C(F)(F)F)cc3)c2Cl)cc1 (stereo not drawn) [I-1276]
2.14[a],–,–,CCOc1c(N)nsc1C(=O)NC1CCCCC1 [I-727]
–,1.40^[a],–,CS(C)=Nc1nsc(C(=O)NCc2c(F)cc(F)cc2F)c1F [II-079]
2.59[a],–,–,CCn1ncc(CNC(=O)c2snc(NCc3ccc(OC)cc3)c2Cl)c1C [I-1237]
2.82[a],–,–,CCc1c(CNC(=O)c2snc(NCc3ccc(OC)cc3)c2Cl)cnn1CC [I-1333]
2.90[a],–,–,Nc1cc(C(=O)N(Cc2ccc(Cl)cc2Cl)C2CC2)sn1 [I-967]
–,4.37^[a],–,COc1ccc(CNc2nsc(C(=O)N3CCCc4cc(Cl)ccc43)c2Cl)cc1 [II-066]
–,2.08,2.03,Nc1nsc(C(=O)N2CCc3ccccc32)c1Cl [II-029]
5.74[a],–,–,O=C(Nc1ccc(Cl)cc1Cl)c1cc(N(Cc2ccccc2)Cc2ccccc2)ns1 [I-903]
2.86[a],–,–,Nc1nsc(C(=S)NCc2c(F)cc(F)cc2F)c1Cl [I-1015]
2.27[a],–,–,Cc1ccc(NC(=O)c2snc(N)c2Cl)cc1 [I-916]
4.85[a],–,–,CCC(c1ccccc1)N(C(=O)c1snc(NCc2ccc(OC)cc2)c1Cl)C1CC1 (stereo not drawn) [I-875]
–,1.39^[a],–,O=C(NCc1c(F)cc(F)cc1F)c1snc(N=S2CCCC2)c1F [II-081]
4.94[a],–,–,COc1ccc(CNc2nsc(C(=O)N(Cc3c(C)cc(C)cc3C)C3CC3)c2Cl)cc1 [I-870]
2.70[a],–,–,COc1ccc(CNc2nsc(C(=O)NCc3ncccc3OC)c2Cl)cc1 [I-1271]

LogP,LogP [a],LogP [b],Compound
2.51[a],–,–,Nc1nsc(C(=O)NCc2cccc(I)c2)c1Cl [I-716]
1.97[a],–,–,Nc1nsc(C(=O)NCC2CCCCC2F)c1Cl (stereo not drawn) [I-1306]
2.54[a],–,–,Nc1nsc(C(=O)NC2CC23CCCCC3)c1Cl (stereo not drawn) [I-1549]
2.05[a],–,–,C#Cc1c(N)nsc1C(=O)NCC1CCCCC1F (stereo not drawn) [I-1359]
1.82[a],–,–,Nc1nsc(C(=O)NCc2ccc(F)cc2)c1Br [I-831]
2.18[a],–,–,Nc1cc(C(=O)N(Cc2cc(F)ccc2F)C2CC2)sn1 [I-997]
2.20[a],–,–,Nc1nsc(C(=O)NCC2CCC(Cl)CC2)c1Cl (stereo not drawn) [I-1579]
3.17[a],–,–,COc1ccc(CNc2nsc(C(=O)NOc3ccccc3)c2Cl)cc1 [I-1031]
3.76[a],–,–,COc1ccc(CNc2nsc(C(=O)Nc3ccc(F)cc3)c2Cl)cc1 [I-858]
1.55[a],–,–,CCOc1c(N)nsc1C(=O)NCC1(O)CCCCC1 [I-726]
1.83[a],–,–,Nc1nsc(C(=O)NCC2(F)CCCC2)c1Br [I-829]
2.10[a],–,–,CCC(=O)Nc1nsc(C(=O)NCc2ccc(F)cc2OC)c1Cl [I-815]
–,2.73^[a],–,Cc1ccc(S(C)=Nc2nsc(C(=O)NCc3ccc(F)c(F)c3F)c2F)cc1 (stereo not drawn) [II-077]
2.88[a],–,–,Cc1ccc(NC(=O)c2snc(N)c2Br)cc1Cl [I-965]
–,2.72,2.66,COc1ccc(CNc2nsc(C(=O)N3CCCC3)c2Cl)cc1 [II-102]
2.18[a],–,–,CCOc1c(N)nsc1C(=O)NCC1CCCC1 [I-725]
1.98[a],–,–,CCC(C)CNC(=O)c1snc(N)c1Cl (stereo not drawn) [I-1014]
4.11[a],–,–,COc1ccc(CNc2nsc(C(=O)NCc3cccc4ccccc34)c2Cl)cc1 [I-1268]
5.41[a],–,–,COc1ccc(CNc2nsc(C(=O)NC3CCc4ccc(C(C)(C)C)cc4C3)c2Cl)cc1 (stereo not drawn) [I-1308]
5.72[a],–,–,CCC1(C)CC(NC(=O)c2snc(NCc3ccc(OC)cc3)c2Cl)CC(C)(C)C1 (stereo not drawn) [I-1254]
2.05[a],–,–,Cc1cccc(C)c1NC(=O)c1snc(N)c1Cl [I-924]
–,5.13^[a],–,O=C(NC1CCCCC1)c1snc(N=C(c2ccccc2)c2ccccc2)c1Cl [II-001]
5.14[a],–,–,CCc1ccccc1C(C)N(C(=O)c1snc(NCc2ccc(OC)cc2)c1Cl)C1CC1 (stereo not drawn) [I-874]
3.55[b],–,–,Nc1nsc(C(=O)NC(Cc2ccccc2)C2CCCCC2)c1Cl (stereo not drawn) [I-1095]
3.41[a],–,–,COc1ccc(CNc2nsc(C(=O)NC3(C#N)CCCC3C)c2Cl)cc1 (stereo not drawn) [I-1220]
2.13[a],–,–,Nc1nsc(C(=O)NCCc2ccc(F)cc2)c1Cl [I-966]

# Continued, compound first:
Compound,LogP,LogP [a],LogP [b]
O=C(NC1CCc2ccccc21)c1snc(Cl)c1Cl (stereo not drawn) [E-II-020],–,3.70,3.63
O=C(NCc1ccc(Cl)cc1)c1cc(N(Cc2ccccc2)Cc2ccccc2)ns1 [I-314],4.85[a],–,–
Nc1nsc(C(=O)NCc2cc(Cl)ccc2Cl)c1Cl [I-416],2.71[a],–,–
COc1ccc(CNc2nsc(C(=O)OC(C)(C)C)c2Cl)cc1 [E-VII-002],–,4.74^[a],–
O=C(NCc1ccc(Cl)cc1)c1snc(NCC(F)(F)F)c1Cl [I-578],3.44[a],–,–
COc1ccc(CNc2nsc(C(=O)NCc3ccc(F)cc3C(F)(F)F)c2Cl)cc1 [I-220],4.18[a],–,–
CCC(=O)Nc1nsc(C(=O)NC(C)C2CCCCC2)c1Cl (stereo not drawn) [I-601],2.82[a],–,–
Nc1nsc(C(=O)NCc2c(F)cccc2Cl)c1Cl [I-132],2.06[a],–,–
COc1ccc(CNC(=O)c2cc(N)ns2)cn1 [I-099],0.86[a],–,–
Cc1c(N)nsc1C(=O)NCc1ccc(Cl)cc1 [I-051],1.86[a],–,–
Nc1nsc(C(=O)NCc2ccc(F)cc2)c1Cl [I-025],1.83[a],–,–
COc1ccc(CNC(=O)c2snc(N)c2Cl)c(F)c1 [I-126],1.88[a],–,–
Cc1ccc(C2(C)CC2)c(CNC(=O)c2snc(N)c2Cl)c1 [I-414],3.29[a],–,–
Nc1nsc(C(=O)N(Cc2cc(Cl)cc(C(F)(F)F)c2)C2CC2)c1Cl [I-216],3.53[a],–,–
Nc1cc(C(=O)NCc2ccc(F)cc2)sn1 [I-029],1.27[a],–,–
Cc1c(N)nsc1C(=O)NCc1c(F)cccc1Cl [I-587],1.61[a],–,–
COc1ccc(CNc2nsc(C(=O)NCc3ccc(Cl)cc3F)c2Cl)cc1 [I-225],4.03[a],–,–
CC(C)(C)OC(=O)c1snc(N)c1Cl [E-VII-003],–,2.66^[a],–
C[C@H](NC(=O)c1snc(N)c1Cl)C1CCCCC1 [I-003],2.50[a],–,–
O=C(NC1CCCC2CCCCC21)c1snc(NCc2ccccc2)c1NCc1ccccc1 (stereo not drawn) [I-047],5.65[a],–,–
COc1ccc(CNc2nsc(C(=O)NCC3CCC(C(F)(F)F)CC3)c2Cl)cc1 (stereo not drawn) [I-107],4.30[a],–,–

Compound,LogP,LogP [a],LogP [b]
Nc1nsc(C(=O)NCc2ccc(C3CC3)cc2)c1C1CC1 [I-606],2.48[a],–,–
O=C(NCc1ccccc1F)c1snc(NC(=O)C2CC2)c1Cl [I-093],2.12[a],–,–
Cc1c(N)nsc1C(=O)NCC1CCCCC1 [I-042],2.01[a],–,–
Nc1nsc(C(=O)NC2(c3ccc(F)cc3)CC2)c1Cl [I-023],2.02[a],–,–
C[C@H](NC(=O)c1snc(N)c1C1CC1)C1CCCCC1 [I-271],2.68[a],–,–
Nc1cc(C(=O)NCc2cc(F)ccc2F)sn1 [I-030],1.49[a],–,–
O=C(NCc1ccccc1F)c1snc(NCc2ccccc2)c1Cl [I-069],3.56[a],–,–
Nc1nsc(C(=O)NCC2CCCC2)c1Cl [I-073],2.15[a],–,–
COC(=O)Nc1nsc(C(=O)NCc2ccccc2F)c1Cl [I-239],1.98[a],–,–
O=C(NCc1cccc(F)c1)c1cc(N(Cc2ccccc2)Cc2ccccc2)ns1 [I-310],4.40[a],–,–
Nc1nsc(C(=O)N(Cc2ccc(Cl)cc2Cl)C2CC2)c1Cl [I-209],3.37[a],–,–
CC1(C)CCCCC1CNC(=O)c1snc(N)c1Cl (stereo not drawn) [I-080],3.05[a],–,–
CC1(C)CC(CNC(=O)c2snc(N)c2Cl)C1 [I-243],2.49[a],–,–
O=C(NCc1cc(Cl)cc(Cl)c1)c1cc(N(Cc2ccccc2)Cc2ccccc2)ns1 [I-312],2.90[a],–,–
Nc1nsc(C(=O)NCc2cc(Cl)cc(Cl)c2)c1Cl [I-027],2.63[a],–,–
Nc1cc(C(=O)NCc2ccc(F)c(F)c2)sn1 [I-166],1.54[a],–,–
C[C@H](NC(=O)c1snc(NC(=O)C(F)F)c1Cl)C1CCCCC1 [I-522],3.06[a],–,–
Nc1nsc(C(=O)NCc2ccccc2)c1Cl [I-004],1.69[a],–,–
COc1ccc(CNc2nsc(C(=O)NCc3ccc(Cl)c(OC)c3)c2Cl)cc1 [I-390],3.76[a],–,–
Cc1cc(CNC(=O)c2snc(N)c2Cl)ccc1F [I-349],2.28[a],–,–

# Same assay, conditions: HPLC LC-UV, acidic range, 0.1% formic acid in water and acetonitrile as eluent
row,Compound,chromatographic logP
1,"CCOC(=O)c1snc(N(Cc2ccccc2)Cc2ccccc2)c1Br [E-VII-008, ethyl 4-bromo-3-(dibenzylamino)-1,2-thiazole-5-carboxylate]",5.8
2,"O=C(O)c1snc(N(Cc2ccccc2)Cc2ccccc2)c1C1CC1 [E-VIII-008, 4-cyclopropyl-3-(dibenzylamino)isothiazole-5-carboxylic acid]",4.11
